Data from the supplement of paper PMC3974653.
Structures can show the parent of a compound that is named as a salt.

These compounds were tested on MTT (mouse pheochromocytoma) (assay: IC50 of cell viability (ATP content)). Settings: (24 or 48 h).
Outline: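 MTT mouse pheochromocytoma cells in white 1536-well plates were treated for 24 or 48 hrs with library compounds at 8 final concentrations from 0.5 nM to 46 µM. ATP content was measured with CellTiter-Glo luminescence, using positive-control wells as 100% and DMSO wells as 0%. IC50 came from a four-parameter logistic fit.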

| IC50 of cell viability [µM] | Structure (SMILES) |
| --- | --- |
| > 46 | O=C(CCN1CCN(CCO)CC1)N1c2ccccc2Sc2ccc(C(F)(F)F)cc21 [Ftorpropazine] |
| > 46 | CNNCc1ccc(C(=O)NC(C)C)cc1 [Procarbazine hydrochloride] |
| > 46 | COc1ccc2c(c1)c(CC(=O)O)c(C)n2C(=O)c1ccc(Cl)cc1 [Indometacin] |
| > 46 | C[C@@H]1C[C@@H](OC(=O)[C@@H](O)c2ccccc2)CC(C)(C)N1C [Eucatropine hydrochloride] |
| > 46 | CCN1CCCC1CNC(=O)c1cc([S+](=O)([O-])CC)ccc1OC (configuration not stated) [Sultopride Hydrochloride] |
| > 46 | CCN(CC)CCOc1ccc(Cc2ccccc2)cc1 [N,N-DIETHYL-2-[4-(PHENYLMETHYL)PHENOXY]ETHANAMINE] |
| > 46 | CCN(CC)CCNC(=O)c1c(C)[nH]c(/C=C2\C(=O)Nc3ccc(F)cc32)c1C [Sunitinib malate] |
| > 46 | O=C(NCCN1CCOCC1)c1ccc(Cl)cc1 [MOCLOBEMIDE] |
| > 46 | O=C(OCc1ccccc1)c1ccccc1 [Benzyl benzoate] |
| > 46 | CC(C)NCC(O)c1ccc(N[S+](C)(=O)[O-])cc1 (configuration not stated) [SOTALOL] |
| > 46 | CNC[C@H](O)[C@H](O)[C@H](O)[C@H](O)CO.Cc1c(Nc2ncccc2C(=O)O)cccc1C(F)(F)F [Flunixin meglumine] |
| > 46 | CCCc1nn(C)c2c(O)nc(-c3cc([S+](=O)([O-])N4CCN(C)CC4)ccc3OCC)nc12 [Sildenafil citrate] |
| > 46 | O=C\1OC2=C(C=CC=C2)\C=C1 [Coumarin] |
| > 46 | CC(C(O)c1ccccc1)N(C)CCOC(c1ccccc1)c1ccccc1 (configuration not stated) [DIFETEROL HYDROCHLORIDE] |
| > 46 | Cc1ncc(CO)c(CO)c1O [Pyridoxine] |
| > 46 | O=P(O)(O)OC(Cn1cncn1)(Cn1cncn1)c1ccc(F)cc1F [Fosfluconazole] |
| > 46 | COc1ccccc1OC[C@H](O)COC(N)=O [Methocarbamol] |
| > 46 | CC(CN(C)C)C(C)(O)Cc1ccc(Cl)cc1 (configuration not stated) [CLOBUTINOL HYDROCHLORIDE] |
| > 46 | CC\C1=C(/C)CN(C(=O)NCCC2=CC=C(C=C2)[S+]([O-])(=O)NC(=O)NC3CCC(C)CC3)C1=O (configuration not stated) [Glimepiride] |
| > 46 | CO/N=C(/C(=O)N[C@@H]1C(=O)N2C(C(=O)O)=C(COC(N)=O)CS[C@H]12)c1ccco1 [Cefuroxime Free Acid] |
| > 46 | NCC1=C(CC(=O)N[C@H]2[C@@H]3SC\C(=C(/N3C2=O)C(O)=O)CSC4=NN=N[N]4CC(O)=O)C=CC=C1 [Ceforanide] |
| > 46 | C1CN\C(N1)=C/C2=CC=CC3=C2C=CC=C3 [Nephazoline] |
| > 46 | CC1(C)\N=C(N)/N=C(/N)N1C2=CC=C(Cl)C=C2 [Cycloguanil HCl] |
| > 46 | CCSc1ccc2c(c1)N(CCCN1CCN(C)CC1)c1ccccc1S2.O=C(O)C[C@@H](O)C(=O)O.O=C(O)C[C@@H](O)C(=O)O [Thiethylperazine malate] |
| > 46 | O=C([O-])c1cc(/N=N/c2ccc(O)c(C(=O)[O-])c2)ccc1O [OLSALAZINE SODIUM] |
| > 46 | CC(C)(C(=O)O)c1ccc(C(O)CCCN2CCC(C(O)(c3ccccc3)c3ccccc3)CC2)cc1 (configuration not stated) [Fexofenadine] |
| > 46 | Cc1ccc(Cl)c(Nc2ccccc2C(=O)[O-])c1Cl.O.[Na+] [Meclofenamic acid sodium salt monohydrate] |
| > 46 | O=C1CCc2cc(OCCCCc3nnnn3C3CCCCC3)ccc2N1 [CILOSTAZOL] |
| > 46 | [Na+].CO[C@@]1(NC(=O)CSCC#N)[C@@H]2SC\C(=C(/N2C1=O)C([O-])=O)CSC3=NN=N[N]3C [Cefmetazole sodium salt] |

Second part, the compound before the results:

| Structure (SMILES) | IC50 of cell viability [µM] |
| --- | --- |
| CC(C)=CC1C(C(=O)OCc2coc(Cc3ccccc3)c2)C1(C)C (configuration not stated) [BIORESMETHRINUM] | > 46 |
| O=S(=O)([O-])C(F)(F)C(F)(F)C(F)(F)C(F)(F)F [Potassium nonafluoro-1-butanesulfonate] | > 46 |
| CCCCC/C=C/C/C=C/CCCCCCCC(=O)OCC [ETHYL LINOLEATE] | > 46 |
| CCCCCCCCCCCCCCCC(=O)NCCO [Palmitoylethanolamide] | > 46 |
| Cc1cccc(Cc2c[nH]cn2)c1C [Detomidine] | > 46 |
| C[N+]1(C)[C@@H]2C[C@H](OC(=O)[C@@H](CO)c3ccccc3)C[C@@H]1[C@H]1O[C@H]12 [Proscomide] | > 46 |
| CCCCCCCC/C=C\CCCCCCCC(=O)OC[C@@H](O)[C@H]1OC[C@H](O)[C@H]1O [Sorbitan, mono-(9Z)-9-octadecenoate] | > 46 |
| NCC[C@H](O)C(=O)N[C@@H]1C[C@H](N)[C@@H](O[C@H]2O[C@H](CN)CC[C@H]2N)[C@H](O)[C@H]1O[C@H]1O[C@H](CO)[C@@H](O)[C@H](N)[C@H]1O [ARBEKACIN SULFATE] | > 46 |
| C[C@@H]1O[C@@H](O[C@@H]2\C=C/C=C\C=C/C=C\C[C@H](C)OC(=O)/C=C\[C@H]3O[C@@H]3C[C@H](O)C[C@]3(O)C[C@@H](O)[C@@H](C(=O)O)[C@H](C2)O3)[C@H](O)[C@H](N)[C@@H]1O [Natamycin] | > 46 |
| CC(C)(C)C(=O)OCC(=O)C1CCC2C3CCC4=CC(=O)CCC4(C)C3CCC12C (configuration not stated) [DESOXYCORTICOSTERONE PIVALATE] | > 46 |
| c1ccc(CN2CCNCC2)cc1 [1-Benzylpiperazine] | > 46 |
| CCOP(=O)(OCC)O/C(=C/Cl)c1ccc(Cl)cc1Cl [CLOFENVINFOSUM] | > 46 |
| CC(=O)O[C@H]1C[C@@H]2CC[C@@H]3[C@H](CC[C@@]4(C)[C@H]3C[C@H]([N+]3(C)CCCCC3)[C@@H]4OC(C)=O)[C@@]2(C)C[C@@H]1N1CCCCC1 [VECURONIUM BROMIDE] | > 46 |
| CO/N=C1\CN(c2nc3c(cc2F)c(=O)c(C(=O)O)cn3C2CC2)CC1CN.C[S+](=O)([O-])O (configuration not stated) [GEMIFLOXACIN MESYLATE] | > 46 |
| CN1CCN(CCCN2c3ccccc3Sc3ccc([S+](=O)([O-])N(C)C)cc32)CC1.C[S+](=O)([O-])O.C[S+](=O)([O-])O [Thioproperazine dimesylate] | > 46 |
| O=C/1O[C@@]23CC(/C=C\C2=C1)N4CCCCC34 (some centres not stated) [SECURININE] | > 46 |
| CCCOC(=O)Cc1ccc(OCC(=O)N(CC)CC)c(OC)c1 [Propanidid] | > 46 |
| N=C(N)NCCC[C@H](N)C(=O)O [L-Arginine] | > 46 |
| CC(=O)[C@H]1CC[C@H]2[C@@H]3CC[C@H]4C[C@H](O)CC[C@]4(C)[C@H]3CC[C@]12C [5-alpha-PREGNAN-3-alpha-OL-20-ONE] | > 46 |

| Structure (SMILES) | IC50 of cell viability [µM] |
| --- | --- |
| CC(=O)O[C@]1(C(C)=O)CCC2C3CCC4=CC(=O)CCC4(C)C3(F)C(O)CC21C (some centres not stated) [Flurogestone acetate] | > 46 |
| CN1C(=O)CN=C(c2ccccc2)c2cc([N+](=O)[O-])ccc21 [nimetazepam] | > 46 |
| O=C1c2ccccc2C(=O)c2ccccc21 [Anthraquinone] | > 46 |
| C[C@]12CCC(=O)C[C@@H]1CC[C@@H]1[C@@H]2CC[C@]2(C)C=CC[C@@H]12 [5A-ANDROSTA-16-ENE-3-ONE] | > 46 |
| CC1CC[C@@]2(NC1)OC1CC3C4CC[C@@H]5CC(O)CC[C@@]5(C)C4CC[C@]3(C)C1C2C.Cl (some centres not stated) [TOMATIDINE HYDROCHLORIDE] | > 46 |
| CCCN1CCC[C@H](c2cccc(O)c2)C1.Cl [R(+)-3PPP hydrochloride] | > 46 |
| C[C@H](O)CN(C)C | > 46 |
| O=C(O)CCC(=O)C(=O)O [2-Oxopentanedioic acid] | > 46 |
| COc1ccc(OC)c(C[C@H](C)N)c1 [(+)-2,5-Dimethoxyamphetamine] | > 46 |
| CCOc1cc(C=O)ccc1O [Ethylvanillin] | > 46 |
| Cc1c(C)c2c(c(C)c1O)CC[C@@](C)(CCC[C@H](C)CCC[C@H](C)CCCC(C)C)O2 [Alpha-Vitamin E] | > 46 |
| COc1ccc2cc1Oc1ccc(cc1)CC1c3c(cc4c(c3Oc3cc5c(cc3OC)CCN(C)C5C2)OCO4)CCN1C (configuration not stated) [CEPHARANTHINE] | > 46 |
| CCNC[C@H](O)c1cccc(O)c1 [Etilefrine hydrochloride] | > 46 |
| CC(C)(Sc1cc(C(C)(C)C)c(O)c(C(C)(C)C)c1)Sc1cc(C(C)(C)C)c(O)c(C(C)(C)C)c1 [Probucol] | > 46 |
| O=C(O)[C@@H]1CSCN1 [TIMONACICUM] | > 46 |
| CC[C@H](NC(C)C)[C@H](O)c1ccc(O)c(O)c1.C[S+](=O)([O-])O [Isoetharine mesylate salt] | > 46 |
| [O-][S+](c1cc(Cl)cc(Cl)c1O)c1cc(Cl)cc(Cl)c1O [Bithionoloxide] | > 46 |
| N=C(N)NCCC[C@H](NC(=O)[C@@H]1CCCN1C(=O)[C@@H]1CSSC[C@H](N)C(=O)N[C@@H](Cc2ccc(O)cc2)C(=O)N[C@@H](Cc2ccccc2)C(=O)N[C@@H](CCC(N)=O)C(=O)N[C@@H](CC(N)=O)C(=O)N1)C(=O)NCC(N)=O [Argipressin acetate] | > 46 |
| CC(C)=CC1C(C(=O)OCN2C(=O)\C3=C(\CCCC3)C2=O)C1(C)C (configuration not stated) [TETRAMETHRINUM] | > 46 |
